“And” between values parts separate entries of the source, which are not always exact repeats. Equal entries are not always repeated.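 Cells were grown in 96-well plates and exposed to each compound for 48 hours at five concentrations; endpoints were interpolated linearly between bracketing concentrations, or set to the highest concentration if not reached. GI50: concentration for 50% inhibition of growth. At the TGI there is no net growth.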

The source of these data is PubChem BioAssay (NCI).

Among the test systems are UACC-257 melanoma; 786-0 renal; SK-MEL-5 melanoma; HOP-62 NSCLC; EKVX NSCLC; CAKI-1 renal; SK-OV-3 ovarian; SF-268 CNS; MALME-3M melanoma; LOX IMVI melanoma.
Assay in all cases: NCI tumour cell line growth inhibition, 48 h

In the case of `O=C(CN1CCN(c2cc3c(cc2F)c(=O)c(C(=O)N/N=C/c2ccccc2O)cn3C2CC2)CC1)N/N=C\c1ccccc1O`, the GI50 was 0.912 µM with UACC-257 melanoma; 1.12 µM with 786-0 renal; 0.876 µM in the assay with SK-MEL-5 melanoma; 0.408 µM in the assay on HOP-62 NSCLC; 1.11 µM with EKVX NSCLC; 1.1 µM in the assay with CAKI-1 renal. The GI50 in the assay with SK-OV-3 ovarian was 0.763 µM; in the assay with SF-268 CNS, 0.474 µM; in the assay on MALME-3M melanoma, 0.627 µM; in the assay with LOX IMVI melanoma, 0.232 µM. Besides, the TGI in the assay on UACC-257 melanoma is greater than 100 µM; with 786-0 renal, greater than 100 µM; with SK-MEL-5 melanoma it was 2.95 µM; in the assay on HOP-62 NSCLC, greater than 100 µM; with EKVX NSCLC, greater than 100 µM; in the assay on CAKI-1 renal it was greater than 100 µM. Further, the TGI with SK-OV-3 ovarian is greater than 100 µM; in the assay with SF-268 CNS, greater than 100 µM; in the assay with MALME-3M melanoma, greater than 63.4 µM; in the assay with LOX IMVI melanoma it was greater than 75.7 µM.
As to `COc1cc(/C=C/c2cc(/C=C/c3ccc(O)c(OC)c3)n(C(=O)Nc3ccc(F)cc3)n2)ccc1O`, the GI50 is 2.17 µM in the assay with UACC-257 melanoma; 1.08 µM in the assay with 786-0 renal; 0.418 µM in the assay on SK-MEL-5 melanoma; 1.07 µM with HOP-62 NSCLC; 3.05 µM in the assay on EKVX NSCLC; 0.77 µM in the assay with CAKI-1 renal. The GI50 was 1.04 µM in the assay on SK-OV-3 ovarian, 0.602 µM in the assay with SF-268 CNS, 0.743 µM in the assay with MALME-3M melanoma and 0.476 µM in the assay on LOX IMVI melanoma. For the same compound, the TGI came out at 9.12 µM in the assay with UACC-257 melanoma; 6.8 µM with 786-0 renal; 3.25 µM in the assay on SK-MEL-5 melanoma; 9.36 µM with HOP-62 NSCLC; 43.7 µM in the assay on EKVX NSCLC; 49.5 µM in the assay with CAKI-1 renal. The TGI in the assay on SK-OV-3 ovarian was found to be 4.33 µM; in the assay on SF-268 CNS, 10 µM; in the assay on MALME-3M melanoma, 7.85 µM; in the assay on LOX IMVI melanoma, 4.26 µM.
With `NC(CCc1nc(-c2ccc(Cl)cc2)cs1)C(=O)O` (centres undefined), the TGI with UACC-257 melanoma, in the assay with 786-0 renal, with SK-MEL-5 melanoma, with HOP-62 NSCLC, in the assay on EKVX NSCLC and in the assay on CAKI-1 renal was greater than 100 µM in each case. The TGI in the assay on SK-OV-3 ovarian, in the assay with SF-268 CNS, in the assay on MALME-3M melanoma and in the assay with LOX IMVI melanoma was greater than 100 µM throughout.
Consider `O=C1c2cccnc2-c2nc(-c3ccccc3[N+](=O)[O-])cc3c2c1nc1ccccc13`, for which the GI50 is 2.01 µM with UACC-257 melanoma; 14.7 µM in the assay on 786-0 renal; 2.6 µM in the assay on SK-MEL-5 melanoma; 16 µM in the assay with HOP-62 NSCLC; 31.6 µM with EKVX NSCLC; 18 µM with CAKI-1 renal. The GI50 was 67 µM in the assay on SK-OV-3 ovarian, 6.39 µM in the assay with SF-268 CNS, 3.11 µM with MALME-3M melanoma and 2.84 µM with LOX IMVI melanoma. Also, the TGI in the assay on UACC-257 melanoma was 13.3 µM; with 786-0 renal, 35.1 µM; in the assay with SK-MEL-5 melanoma, 8.23 µM; in the assay with HOP-62 NSCLC, 41 µM; with EKVX NSCLC, greater than 74.3 µM; in the assay with CAKI-1 renal it was 43.3 µM. The TGI in the assay with SK-OV-3 ovarian is greater than 100 µM; in the assay with SF-268 CNS, greater than 69.1 µM; in the assay with MALME-3M melanoma, 14.8 µM; with LOX IMVI melanoma, 13.7 µM.
Turning to `COc1ccc2c(c1)C1(C=N2)CCN(C(C)=O)CC1`, the TGI in the assay with UACC-257 melanoma, in the assay on 786-0 renal, in the assay on SK-MEL-5 melanoma, with HOP-62 NSCLC, in the assay with EKVX NSCLC and in the assay on CAKI-1 renal was greater than 100 µM throughout. Moreover, the TGI with SK-OV-3 ovarian, in the assay with SF-268 CNS, in the assay with MALME-3M melanoma and in the assay with LOX IMVI melanoma was greater than 100 µM throughout.
For the compound `Cc1cc(=O)[nH]c2cc3oc4ccccc4c3cc12`, the TGI is greater than 100 µM in the assay on UACC-257 melanoma; greater than 81.8 µM in the assay with 786-0 renal; greater than 100 µM in the assay with SK-MEL-5 melanoma; greater than 100 µM in the assay with HOP-62 NSCLC; greater than 100 µM with EKVX NSCLC; greater than 100 µM with CAKI-1 renal. Moreover, the TGI in the assay with SK-OV-3 ovarian is greater than 100 µM; in the assay on SF-268 CNS, greater than 93.7 µM; with MALME-3M melanoma, greater than 100 µM; with LOX IMVI melanoma it was greater than 100 µM.
As for `CC1=C(C(=O)Nc2ccc(F)c(Cl)c2)C(c2ccc(Cl)cc2)NC(=O)N1` (centres undefined), the GI50 in the assay on UACC-257 melanoma is 19.4 µM; in the assay on 786-0 renal, 16.5 µM; in the assay with SK-MEL-5 melanoma, 15.5 µM; in the assay on HOP-62 NSCLC it was 15.5 µM; with EKVX NSCLC, 18.5 µM; in the assay with CAKI-1 renal it was 21 µM. In addition, the GI50 in the assay on SK-OV-3 ovarian is 81.8 µM; in the assay with SF-268 CNS, 22.1 µM; with MALME-3M melanoma it was 16.8 µM; in the assay with LOX IMVI melanoma it was 16.6 µM. For the same compound, the TGI was found to be 38.6 µM in the assay with UACC-257 melanoma; 31.7 µM with 786-0 renal; 30.4 µM in the assay on SK-MEL-5 melanoma; 30.8 µM with HOP-62 NSCLC; 49.9 µM with EKVX NSCLC; 71.2 µM in the assay with CAKI-1 renal. For the same compound, the TGI with SK-OV-3 ovarian is greater than 100 µM; with SF-268 CNS, 73.4 µM; in the assay with MALME-3M melanoma, 38.5 µM; in the assay with LOX IMVI melanoma it was 32 µM.
On to `O=C1NNC(=O)c2ccccc2SSc2ccccc2C(=O)NNC(=O)c2ccccc2SSc2ccccc21`, for which the GI50 in the assay with UACC-257 melanoma was 45.2 µM; with 786-0 renal, 10 µM; with SK-MEL-5 melanoma, 42.1 µM; in the assay with EKVX NSCLC it was 10.5 µM; in the assay with CAKI-1 renal, 18.1 µM; in the assay with SK-OV-3 ovarian, greater than 100 µM. Also, the GI50 with SF-268 CNS was 9.81 µM; in the assay on MALME-3M melanoma it was 25.9 µM; in the assay with LOX IMVI melanoma, 7.02 µM. The TGI was 50 µM and > 100 µM in the assay on UACC-257 melanoma; 50 µM and 26.6 µM with 786-0 renal; 50 µM and > 100 µM with SK-MEL-5 melanoma; 50 µM and > 100 µM in the assay on HOP-62 NSCLC; 50 µM and > 100 µM in the assay on EKVX NSCLC; 50 µM and > 100 µM with CAKI-1 renal. In addition, the TGI in the assay on SK-OV-3 ovarian is 50 µM and > 100 µM; in the assay with SF-268 CNS, 30.2 µM and > 100 µM; in the assay on MALME-3M melanoma, 42.6 µM and > 100 µM; in the assay with LOX IMVI melanoma it was 50 µM and > 100 µM.
As for `COc1ccc(/C=C\c2cc(OC)c3c(c2)OCO3)c(O)c1O`, the TGI with UACC-257 melanoma turned out to be 53.4 µM; in the assay on 786-0 renal it was 14.7 µM; in the assay with SK-MEL-5 melanoma it was 6.32 µM; with HOP-62 NSCLC it was 64.5 µM; in the assay with EKVX NSCLC, 40.4 µM; in the assay on CAKI-1 renal it was 20.5 µM. Also, the TGI was greater than 77 µM in the assay on SK-OV-3 ovarian, 18.8 µM with SF-268 CNS, 48.7 µM in the assay on MALME-3M melanoma and 16.6 µM in the assay with LOX IMVI melanoma.
With `CC1=C(C#N)C23C(=O)c4ccccc4C(O)=C2C(=O)C=CC3(O)N1Cc1ccccc1` (centres undefined), the GI50 was 35 µM with UACC-257 melanoma; 44.5 µM in the assay with 786-0 renal; 18 µM in the assay on SK-MEL-5 melanoma; 49.9 µM in the assay with HOP-62 NSCLC; 43.6 µM in the assay on EKVX NSCLC; 43.2 µM with CAKI-1 renal. The GI50 is greater than 100 µM in the assay with SK-OV-3 ovarian, 40.3 µM in the assay on SF-268 CNS, 22 µM in the assay on MALME-3M melanoma and 33 µM with LOX IMVI melanoma. The TGI in the assay with UACC-257 melanoma was greater than 100 µM; in the assay on 786-0 renal, greater than 100 µM; with SK-MEL-5 melanoma, 61.5 µM; in the assay with HOP-62 NSCLC, greater than 100 µM; with EKVX NSCLC it was greater than 100 µM; in the assay with CAKI-1 renal, greater than 100 µM. Besides, the TGI in the assay with SK-OV-3 ovarian is greater than 100 µM; in the assay with SF-268 CNS, greater than 100 µM; in the assay with MALME-3M melanoma it was 47.1 µM; in the assay with LOX IMVI melanoma it was greater than 100 µM.
Consider `O=C1C2=C(SCCS2)C(=O)c2ccccc21`, for which the TGI in the assay on UACC-257 melanoma came to 3.45 µM; in the assay on 786-0 renal, 3.12 µM; in the assay with SK-MEL-5 melanoma, 3.09 µM; in the assay with HOP-62 NSCLC it was 2.9 µM; in the assay with EKVX NSCLC, 2.69 µM; with CAKI-1 renal, 3.32 µM. The TGI was 3.12 µM with SK-OV-3 ovarian, 3.05 µM with SF-268 CNS, 3.2 µM with MALME-3M melanoma and 2.27 µM with LOX IMVI melanoma.
Take `NC(CSC(c1ccccc1)(c1ccccc1)c1ccc2c(c1)OCO2)C(=O)O` (centres undefined): the GI50 in the assay on UACC-257 melanoma was 2.52 µM; in the assay on 786-0 renal, 2.96 µM; in the assay on SK-MEL-5 melanoma it was 0.365 µM; with HOP-62 NSCLC, 1.64 µM; in the assay with EKVX NSCLC, 0.625 µM; in the assay with CAKI-1 renal, 5.14 µM. Further, the GI50 with SK-OV-3 ovarian was 0.42 µM; in the assay with SF-268 CNS, 0.82 µM; in the assay with MALME-3M melanoma it was 0.979 µM; in the assay with LOX IMVI melanoma, 0.577 µM. Besides, the TGI with UACC-257 melanoma is greater than 100 µM; with 786-0 renal it was greater than 89.4 µM; in the assay on SK-MEL-5 melanoma, 5.01 µM; in the assay with HOP-62 NSCLC, greater than 100 µM; in the assay on EKVX NSCLC, 79.4 µM; in the assay on CAKI-1 renal, greater than 100 µM. In addition, the TGI in the assay with SK-OV-3 ovarian is greater than 100 µM; in the assay with SF-268 CNS it was greater than 77.6 µM; in the assay with MALME-3M melanoma, 74.4 µM; with LOX IMVI melanoma it was greater than 43.6 µM.
For the compound `O=C(/C=C/c1ccccc1Cl)c1ccc(Cl)c(Cl)c1`, the TGI in the assay on UACC-257 melanoma amounted to 40.2 µM; in the assay with 786-0 renal it was 29.8 µM; with SK-MEL-5 melanoma, 36.1 µM; in the assay on HOP-62 NSCLC it was 57.6 µM; in the assay with EKVX NSCLC, 37.4 µM; in the assay with CAKI-1 renal it was 30.9 µM. In addition, the TGI with SK-OV-3 ovarian stood at 51.3 µM; in the assay on SF-268 CNS, 33.7 µM; with MALME-3M melanoma, 55.7 µM; in the assay with LOX IMVI melanoma, 28 µM.
`COc1ccc2nc3cc(Cl)ccc3c(Sc3ccccc3[N+](=O)[O-])c2c1`: the TGI in the assay on UACC-257 melanoma, in the assay with 786-0 renal, in the assay with SK-MEL-5 melanoma, with HOP-62 NSCLC, in the assay on EKVX NSCLC and in the assay with CAKI-1 renal was greater than 100 µM throughout. The TGI in the assay with SK-OV-3 ovarian, in the assay on SF-268 CNS, in the assay on MALME-3M melanoma and in the assay on LOX IMVI melanoma was greater than 100 µM each time.
